Data published in US12622872B2, “Process for the preparation of sterile ophthalmic aqueous fluticasone propionate form a nanocrystals suspensions” (Nicox Ophthalmics, Inc., priority 2019, dated 2026).

Columns and labels:
[1] = In vitro dissolution test (compartment diffusion through dialysis membrane, sink condition); type: physicochemical
Method: Dissolution profiles of nanocrystals of Fluticasone propionate form A of two nanosuspensions of the invention and of Fluticasone propionate form 1 micronized were performed using a dissolution method.
The study was performed using a compartment diffusion analysis through a dialysis membrane and sink condition. The sink condition was achieved through the use of a receptor fluid containing 30 mM phosphate buffer, pH 7.4 with 5% HPβCD cyclodextrins and also by a complete replacement of the buffer every 24 hours to stay below the saturation point. The saturation point was estimated to be 5 μg/g under those experimental conditions and the measurements performed as well as the buffer replacement have shown a maximum concentration of 1.5 μg/g. The study was conducted at a temperature of 37° C. The details of the dissolution test method are provided below:
A 5-fold dilution with the formulation vehicle (placebo solution containing all the formulation excipients including the surfactants) of two 0.1% w/w Fluticasone propionate form A nanosuspensions was conducted to obtain a final concentration of 0.02% w/w Fluticasone propionate inside the dialysis device.
Fluticasone propionate form 1 micronized was suspended in the same phosphate buffer used in the receiving compartment of the dialysis system.
Fluticasone propionate release was carried at 1-2 RPM. […]
These aliquots were immediately centrifuged and the measurements were performed by HPLC

[2] = 14-day repeated dose study, plasma toxicokinetics; set-up: species or system Beagle dogs; conditions: dog, in vivo
Source text: The purpose of this study was to evaluate the toxicokinetic of fluticasone propionate Form A nanosuspensions of the invention (see Table 10 below) administered via topical application directly to the rim (margin) of upper and lower eyelids of both eyes of Beagle dogs.
Fifty naïve Beagle dogs (25 males and 25 females), approximately 5-6 months old and weighing 5.7 to 8.8 kg for males and females at the outset of the study were assigned to treatment groups (groups 1-4) and to vehicle group.
Male and female Beagle dogs were dosed with fluticasone propionate at 1.6, 9.6, and 32 μg/day (bilateral QD topical application) or at 64 μg/day (bilateral BID topical application) via eye lid applicator directly to the upper and lower eyelids of both eyes once or twice daily (minimum of 6 hours between doses) for 14 consecutive days.
Blood for toxicokinetic evaluation was collected from all animals at selected time points on Days 1 and 14.

[3] = 1 h, second nanosuspension (Table 8)
[4] = 3 h, second nanosuspension (Table 8)
[5] = 5 h, second nanosuspension (Table 8)
[6] = 19 h, second nanosuspension (Table 8)

Row | % Dissolution Average % ([1]; 1 h) [%] | % Dissolution Tube #1 ([1]; 1 h) [%] | % Dissolution Tube #2 ([1]; 1 h) [%] | % Dissolution Tube #3 ([1]; 1 h) [%] | % Dissolution Average % ([1]; 3 h) [%] | % Dissolution Tube #1 ([1]; 3 h) [%] | % Dissolution Tube #2 ([1]; 3 h) [%] | % Dissolution Tube #3 ([1]; 3 h) [%] | % Dissolution Average % ([1]; 5 h) [%] | % Dissolution Tube #1 ([1]; 5 h) [%] | % Dissolution Tube #2 ([1]; 5 h) [%] | % Dissolution Tube #3 ([1]; 5 h) [%] | SMILES | further results
1 | 0.0 | 0.0 | 0.0 | 0.0 | 0.7 | 0.8 | 0.5 | 0.9 | 2.6 | 2.9 | 1.9 | 3.0 | CCC(=O)O[C@]1(C(=O)SCF)[C@H](C)C[C@H]2[C@@H]3C[C@H](F)C4=CC(=O)C=C[C@]4(C)[C@@]3(F)[C@@H](O)C[C@@]21C [Micronized Fluticasone propionate form 1, fluticasone propionate] | % Dissolution Tube #2 ([1]; 48 h): 44.0%
2 | – | – | – | – | – | – | – | – | – | – | – | – | CCC(=O)O[C@]1(C(=O)SCF)[C@H](C)C[C@H]2[C@@H]3C[C@H](F)C4=CC(=O)C=C[C@]4(C)[C@@]3(F)[C@@H](O)C[C@@]21C [Fluticasone Propionate, fluticasone propionate] | maximum concentration in the receptor fluid ([1]; receptor fluid 30 mM phosphate buffer, pH 7.4 with 5% HPβCD, 37° C.): 1.5 µg/g; Dose dependence of exposure [2]: dose-dependent; Gender-related differences in exposure [2]: no discernable gender-related differences
3 | 0.0 | 0.0 | 0.0 | 0.0 | 0.8 | 0.2 | 1.4 | 0.7 | 2.2 | 1.3 | 2.8 | 2.4 | CCC(=O)O[C@]1(C(=O)SCF)[C@H](C)C[C@H]2[C@@H]3C[C@H](F)C4=CC(=O)C=C[C@]4(C)[C@@]3(F)[C@@H](O)C[C@@]21C [Fluticasone propionate form A nanocrystals] | % Dissolution Average % [1, 3]: 0.0%; % Dissolution Tube #1 [1, 3]: 0.0%; % Dissolution Tube #2 [1, 3]: 0.0%; % Dissolution Tube #3 [1, 3]: 0.0%; % Dissolution Average % [1, 4]: 0.7%; % Dissolution Tube #1 [1, 4]: 0.6%; % Dissolution Tube #2 [1, 4]: 0.5%; % Dissolution Tube #3 [1, 4]: 0.8%; % Dissolution Average % [1, 5]: 2.3%; % Dissolution Tube #1 [1, 5]: 2.4%; % Dissolution Tube #2 [1, 5]: 2.0%; % Dissolution Tube #3 [1, 5]: 2.6%; % Dissolution Average % [1, 6]: 19.0%; % Dissolution Tube #1 [1, 6]: 19.0%; % Dissolution Tube #2 ([1]; 24 h): 24.0%; % Dissolution Tube #3 ([1]; 72 h): 74.0%; dissolution profile compared with Fluticasone propionate form 1 micronized material ([1]; tables 7-9): similar
